US9781927B2, “Microbicidal composition” (Dow Global Technologies LLC, priority 2016, dated 2017)

How the values were obtained:
[1] = system: Desulfovibrio longus ATCC 51456; assay: Biocidal efficacy and synergy of glutaraldehyde and Surf A-C against anaerobic sulfate-reducing bacteria (2 h kill, serial dilution enumeration); assay type: cell-based; settings: Glut part, 35° C.
Description: (§1) Surfactants and biocides were evaluated for synergy by determining the synergy index (S.I.) of the combination. Synergy index was calculated based the concentration required to achieve a certain level of bacterial kill when the two antimicrobial compounds (A and B) alone and in combinations. The tests organisms were anaerobic sulfate-reducing bacteria (Desulfovibrio longus ATCC #51456), facultative bacteria Pseudomonas aeruginosa ATCC #10145 and Staphylococcus aureus ATCC #6538, R^2O(CH2CH(CH3)O)3(CH2CH2O)7H Surf. A R^2O(CH2CH(CH3)O)3(CH2CH2O)5H Surf. B R^2O(CH2CH(CH3)O)3(CH2CH2O)13H Surf. C where R^2 is a mixture of C8-C14 linear alkyl groups.
Inside an anaerobic chamber (Bactron anaerobic chamber), a deoxygenated sterile salt solution (3.1183 g of NaCl, 1.3082 mg of NaHCO3, 47.70 mg of KCl, 72.00 mg of CaCl2, 54.49 mg of MgSO4, 172.28 mg of Na2SO4, 43.92 mg of Na2CO3 in 1 L water) was inoculated with Desulfovibrio longus ATCC 51456 to a final bacterial concentration of 10^6 to 10^7 CFU/mL. Aliquots of this cell suspension were then treated with glutaraldehyde, and each of Surf A-C at selected active concentrations. After incubation at 35° C. for 2 hours, viable bacteria in the aliquots were enumerated using serial dilution method.
(§2) SI is calculated as follows: Ca/CA+Cb/CB=Synergy Index (“SI”)
(§3) Wherein: • Ca=Concentration of biocide A required to achieve a certain level of bacterial kill when used in combination with B • CA=Concentration of biocide A required to achieve a certain level of bacterial kill when used alone • Cb=Concentration of biocide B required to achieve a certain level of bacterial kill when used in combination with A • CB=Concentration of biocide B required to achieve a certain level of bacterial kill when used alone When the sum of Ca/CA and Cb/CB is greater than one, antagonism is indicated.

[2] = system: Pseudomonas aeruginosa ATCC 10145 and Staphylococcus aureus ATCC 6538; assay: Biocidal efficacy and synergy of glutaraldehyde and Surf. B against aerobic (facultative) bacteria (2 h kill, serial dilution enumeration); assay type: cell-based; settings: Glut part, alone (1:0) or in combination with Surf. B, 37° C., approximately 10^7 CFU/mL, 0.85% NaCl
Description: as §1, §2, §3
Sterile 0.85% NaCl solution was inoculated with approximately 10^7 CFU/mL of Pseudomonas aeruginosa ATCC 10145 and Staphylococcus aureus ATCC 6538. […]

O=CCCCC=O [Glut, glutaraldehyde, (1,5-pentanedial) CAS No. 111-30-8]
Concentration (active ppm) for complete bacterial kill in 2 hours, Glut ([1]; alone (1:0) or in combination with Surf C): 29.6 active ppm | Concentration (active ppm) for 99.99% bacterial kill in 2 hours, Glut ([1]; alone (1:0) or in combination with Surf. A, 10^6 to 10^7 CFU/mL): 13.2 active ppm | Concentration (active ppm) for more than 99.999% bacterial kill in 2 hours, Glut ([1]; alone (1:0) or in combination with Surf. B): 29.6 active ppm | Concentration (active ppm) for more than 99.999% bacterial kill in 2 hours, Glut [2]: 29.6 active ppm
